Patent publication US12011444B2, “N-substituted indole derivatives as PGE2 receptor modulators” (Idorsia Pharmaceuticals Ltd, priority 2015, dated 2024)

Legend:
PTGER2 (EP2) = PTGER2 (EP2) (Homo sapiens (Human), UniProt P43116); experiment: hEP2 b-arrestin assay (PathHunter HEK 293 PTGER2 b-arrestin cells); assay type: cell-based; settings: antagonistic activity on hEP2; mean where measured multiple times
Method in brief: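 Readout is β-galactosidase complementation luminescence, expressed as percent of DMSO control (duplicates). PathHunter HEK293 EP2/β-arrestin 2 cells, grown 24 h, received compound for 15 min at 37 °C before a 120 min challenge with PGE2 at 5 μM final, followed by 1 h detection at room temperature.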

PTRGER4 (EP4) = PTRGER4 (EP4) (Homo sapiens (Human), UniProt P35408); experiment: hEP4 b-arrestin assay (PathHunter HEK 293 PTGER4 b-arrestin cells); assay type: cell-based; settings: antagonistic activity on hEP4; mean where measured multiple times
Method in brief: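 Antagonist mode: compound is given 15 min at 37 °C, then 20 nM (final) PGE2 for 120 min, in HEK293 cells stably expressing EP4 fused to ProLink and β-arrestin 2 fused to EA. Recruitment read as β-gal luminescence after 1 h reagent at room temperature, as percent of DMSO control.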

Sequence of PTRGER4 (EP4) (P35408 whole entry, looked up, the tested form may be a part): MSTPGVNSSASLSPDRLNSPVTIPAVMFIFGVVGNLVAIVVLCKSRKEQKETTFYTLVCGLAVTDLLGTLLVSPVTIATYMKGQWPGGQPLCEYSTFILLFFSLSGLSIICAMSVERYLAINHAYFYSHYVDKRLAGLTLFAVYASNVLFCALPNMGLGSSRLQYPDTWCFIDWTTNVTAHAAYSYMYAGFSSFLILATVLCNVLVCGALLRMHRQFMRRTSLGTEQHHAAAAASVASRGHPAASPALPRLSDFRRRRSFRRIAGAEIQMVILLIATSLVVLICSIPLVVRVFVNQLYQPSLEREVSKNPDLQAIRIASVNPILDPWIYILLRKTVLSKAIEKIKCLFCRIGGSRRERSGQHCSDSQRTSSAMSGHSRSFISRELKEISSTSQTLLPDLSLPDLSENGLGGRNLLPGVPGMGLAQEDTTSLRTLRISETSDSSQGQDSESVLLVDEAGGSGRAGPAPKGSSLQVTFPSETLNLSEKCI
Sequence of PTGER2 (EP2) (P43116 whole entry): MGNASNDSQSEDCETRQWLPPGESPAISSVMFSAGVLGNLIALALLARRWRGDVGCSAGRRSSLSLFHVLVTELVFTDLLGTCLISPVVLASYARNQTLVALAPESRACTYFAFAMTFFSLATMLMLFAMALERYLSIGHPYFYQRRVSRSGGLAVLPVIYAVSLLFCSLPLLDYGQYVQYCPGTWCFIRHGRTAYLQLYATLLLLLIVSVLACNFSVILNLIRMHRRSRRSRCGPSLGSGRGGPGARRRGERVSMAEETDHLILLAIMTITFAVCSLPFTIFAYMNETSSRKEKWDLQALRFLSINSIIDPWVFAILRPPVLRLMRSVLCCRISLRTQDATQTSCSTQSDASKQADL

| Compound | IC50 (PTGER2 (EP2)) [µM] | IC50 (PTRGER4 (EP4)) [µM] |
| --- | --- | --- |
| Cc1cc2ccccc2n1CCNc1cc(-c2ccc(C(=O)O)c(CC(C)C)c2)ncn1 [compound 119, 2-Isobutyl-4-{6-[2-(2-methyl-indol-1-yl)-ethylamino]-pyrimidin-4-yl}-benzoic acid] | 0.018 | 0.941 |
| CCCc1cc(-c2cc(NCCn3c(C)cc4c(C)cccc43)ncn2)ccc1C(=O)O [compound 120, 4-{6-[2-(2,4-Dimethyl-indol-1-yl)-ethylamino]-pyrimidin-4-yl}-2-propyl-benzoic acid] | 0.006 | 0.495 |
| CCc1cc(-c2cc(NCCn3c(C)cc4c(F)ccc(F)c43)ncn2)ccc1C(=O)O [compound 121, 4-{6-[2-(4,7-Difluoro-2-methyl-indol-1-yl)-ethylamino]-pyrimidin-4-yl}-2-ethyl-benzoic acid] | 0.005 | 0.765 |
| CCc1cc(-c2cc(NCCn3c(C)cc4cc(F)cc(F)c43)ncn2)ccc1C(=O)O [compound 122, 4-{6-[2-(5,7-Difluoro-2-methyl-indol-1-yl)-ethylamino]-pyrimidin-4-yl}-2-ethyl-benzoic acid] | 0.009 | 0.974 |
| Cc1cc(-c2cc(NCCn3c(C)cc4c(C)ccc(F)c43)ncn2)cc(Cl)c1C(=O)O [compound 123, 2-Chloro-4-{6-[2-(7-fluoro-2,4-dimethyl-indol-1-yl)-ethylamino]-pyrimidin-4-yl}-6-methyl-benzoic acid] | 0.03 | 0.158 |
| CCOc1cc(-c2cc(NCCn3c(C)cc4c(C)ccc(F)c43)ncn2)ccc1CO [compound 124, (2-Ethoxy-4-{6-[2-(7-fluoro-2,4-dimethyl-indol-1-yl)-ethylamino]-pyrimidin-4-yl}-phenyl)-methanol] | 0.007 | 0.151 |
| CCCc1cc(-c2cc(NCCn3c(C)cc4cccc(F)c43)ncn2)ccc1C(=O)O [compound 125, 4-{6-[2-(7-Fluoro-2-methyl-indol-1-yl)-ethylamino]-pyrimidin-4-yl}-2-propyl-benzoic acid] | 0.008 | 0.932 |
| Cc1ccc(F)c2c1cc(C)n2CCNc1cc(-c2cc(Br)c(C(=O)O)cc2F)ncn1 [compound 126] | 0.128 | 0.928 |
| CCOc1cc(-c2cc(NCCn3c(C)cc4c(OC)cccc43)ncn2)ccc1CO [compound 127, (2-Ethoxy-4-{6-[2-(4-methoxy-2-methyl-indol-1-yl)-ethylamino]-pyrimidin-4-yl}-phenyl)-methanol] | 0.004 | 0.192 |
| CCOc1cc(-c2cc(NCCn3c(C)cc4c(C)cccc43)ncn2)ccc1C(=O)O [compound 128, 4-{6-[2-(2,4-Dimethyl-indol-1-yl)-ethylamino]-pyrimidin-4-yl}-2-ethoxy-benzoic acid] | 0.016 | 0.417 |
| COc1cc(-c2cc(NCCn3c(C)cc4c(C)ccc(F)c43)ncn2)ccc1C(=O)O [compound 129, 4-{6-[2-(7-Fluoro-2,4-dimethyl-indol-1-yl)-ethylamino]-pyrimidin-4-yl}-2-methoxy-benzoic acid] | 0.048 | 0.622 |
| COc1cc(-c2cc(NCCn3c(C)cc4c(OC)ccc(F)c43)ncn2)ccc1CO [compound 130, (4-{6-[2-(7-Fluoro-4-methoxy-2-methyl-indol-1-yl)-ethylamino]-pyrimidin-4-yl}-2-methoxy-phenyl)-methanol] | 0.004 | 0.078 |
| COc1cccc2c1cc(C)n2CCNc1cc(-c2cc(C)c(C(=O)O)c(Cl)c2)ncn1 [compound 131, 2-Chloro-4-{6-[2-(4-methoxy-2-methyl-indol-1-yl)-ethylamino]-pyrimidin-4-yl}-6-methyl-benzoic acid] | 0.023 | 0.402 |
| COc1ccc(F)c2c1cc(C)n2CCNc1cc(-c2ccc(NC(N)=O)cc2)ncn1 [compound 132, (4-{6-[2-(7-Fluoro-4-methoxy-2-methyl-indol-1-yl)-ethylamino]-pyrimidin-4-yl}-phenyl)-urea] | 0.043 | 0.277 |
| Cc1cc2ccccc2n1CCNc1cc(-c2ccc3ccncc3c2)ncn1 [compound 133] | 0.029 | 0.99 |
| CNc1cc(-c2cc(NCCn3c(C)cc4c(F)ccc(F)c43)ncn2)ccc1C(=O)O [compound 134, 4-{6-[2-(4,7-Difluoro-2-methyl-indol-1-yl)-ethylamino]-pyrimidin-4-yl}-2-methylamino-benzoic acid] | 0.001 | 0.174 |
| Cc1cc(-c2cc(NCCn3c(C)cc4c(C)ccc(F)c43)ncn2)ccc1S(N)(=O)=O [compound 135] | 0.096 | 0.288 |
| CNc1cc(-c2cc(NCCn3c(C)cc4c(C)ccc(F)c43)ncn2)ccc1C(=O)O [compound 136, 4-{6-[2-(7-Fluoro-2,4-dimethyl-indol-1-yl)-ethylamino]-pyrimidin-4-yl}-2-methylamino-benzoic acid] | 0.005 | 0.048 |

| Compound | IC50 (PTGER2 (EP2)) [µM] | IC50 (PTRGER4 (EP4)) [µM] |
| --- | --- | --- |
| CCNc1cc(-c2cc(NCCn3c(C)cc4cccc(Cl)c43)ncn2)ccc1C(=O)O [compound 137, 4-{6-[2-(7-Chloro-2-methyl-indol-1-yl)-ethylamino]-pyrimidin-4-yl}-2-ethylamino-benzoic acid] | 0.002 | 0.897 |
| CCOc1cc(-c2cc(NCCn3c(C#N)cc4ccccc43)ncn2)ccc1C(=O)O [compound 138, 4-{6-[2-(2-Cyano-indol-1-yl)-ethylamino]-pyrimidin-4-yl}-2-ethoxy-benzoic acid] | 0.007 | 0.567 |
| COc1cccc2c1cc(C)n2CCNc1cc(-c2ccc(S(N)(=O)=O)c(C)c2)ncn1 [compound 139, 4-{6-[2-(4-Methoxy-2-methyl-indol-1-yl)-ethylamino]-pyrimidin-4-yl}-2-methyl-benzenesulfonamide] | 0.028 | 0.939 |
| Cc1cccc2c1cc(C)n2CCNc1cc(-c2ccc(C(=O)O)c(CC(C)C)c2)ncn1 [compound 140, 4-{6-[2-(2,4-Dimethyl-indol-1-yl)-ethylamino]-pyrimidin-4-yl}-2-isobutyl-benzoic acid] | 0.011 | 0.476 |
| CSc1cc(-c2cc(NCCn3c(C)cc4c(Cl)ccc(Cl)c43)ncn2)cc(F)c1C(=O)O [compound 141, 4-{6-[2-(4,7-Dichloro-2-methyl-indol-1-yl)-ethylamino]-pyrimidin-4-yl}-2-fluoro-6-methylsulfanyl-benzoic acid] | 0.02 | 0.992 |
| CSc1cc(-c2cc(NCCn3c(C)cc4c(Cl)ccc(Cl)c43)ncn2)cc(Cl)c1C(=O)O [compound 142, 2-Chloro-4-{6-[2-(4,7-dichloro-2-methyl-indol-1-yl)-ethylamino]-pyrimidin-4-yl}-6-methylsulfanyl-benzoic acid] | 0.016 | 0.588 |
| CCCc1cc(-c2cc(NCCn3c(C)cc4c(F)ccc(Cl)c43)ncn2)ccc1C(=O)O [compound 143, 4-{6-[2-(7-Chloro-4-fluoro-2-methyl-indol-1-yl)-ethylamino]-pyrimidin-4-yl}-2-propyl-benzoic acid] | 0.005 | 0.658 |
| CCCc1cc(-c2cc(NCCn3c(C)cc4c(F)ccc(F)c43)ncn2)ccc1C(=O)O [compound 144, 4-{6-[2-(4,7-Difluoro-2-methyl-indol-1-yl)-ethylamino]-pyrimidin-4-yl}-2-propyl-benzoic acid] | 0.003 | 0.658 |
| CCCc1cc(-c2cc(NCCn3c(C)cc4cc(F)cc(F)c43)ncn2)ccc1C(=O)O [compound 145, 4-{6-[2-(5,7-Difluoro-2-methyl-indol-1-yl)-ethylamino]-pyrimidin-4-yl}-2-propyl-benzoic acid] | 0.008 | 0.302 |
| CCSc1cc(-c2cc(NCCn3c(C)cc4c(C)ccc(Cl)c43)ncn2)ccc1C(=O)O [compound 146, 4-{6-[2-(7-Chloro-2,4-dimethyl-indol-1-yl)-ethylamino]-pyrimidin-4-yl}-2-ethylsulfanyl-benzoic acid] | 0.008 | 0.334 |
| CCCc1cc(-c2cc(NCCn3c(C)cc4c(C)ccc(F)c43)ncn2)ccc1C(=O)O [compound 147, 4-{6-[2-(7-Fluoro-2,4-dimethyl-indol-1-yl)-ethylamino]-pyrimidin-4-yl}-2-propyl-benzoic acid] | 0.016 | 0.109 |
| Cc1cc2cccc(F)c2n1CCNc1cc(-c2ccc(C(=O)O)c(CC(C)C)c2)ncn1 [compound 148, 4-{6-[2-(7-Fluoro-2-methyl-indol-1-yl)-ethylamino]-pyrimidin-4-yl}-2-isobutyl-benzoic acid] | 0.007 | 0.943 |
| CCSc1cc(-c2cc(NCCn3c(C)cc4c(Cl)ccc(Cl)c43)ncn2)ccc1C(=O)O [compound 149, 4-{6-[2-(4,7-Dichloro-2-methyl-indol-1-yl)-ethylamino]-pyrimidin-4-yl}-2-ethylsulfanyl-benzoic acid] | 0.01 | 0.605 |
| CSc1cc(-c2cc(NCCn3c(C)cc4c(C)ccc(Cl)c43)ncn2)cc(Cl)c1C(=O)O [compound 150] | 0.054 | 0.458 |
| CCOc1cc(-c2cc(NCCn3c(C)cc4c(Cl)ccc(Cl)c43)ncn2)ccc1C(=O)O [compound 151, 4-{6-[2-(4,7-Dichloro-2-methyl-indol-1-yl)-ethylamino]-pyrimidin-4-yl}-2-ethoxy-benzoic acid] | 0.008 | 0.808 |
| CCOc1cc(-c2cc(NCCn3c(C)cc4c(F)ccc(Cl)c43)ncn2)ccc1C(=O)O [compound 152, 4-{6-[2-(7-Chloro-4-fluoro-2-methyl-indol-1-yl)-ethylamino]-pyrimidin-4-yl}-2-ethoxy-benzoic acid] | 0.003 | 0.786 |
| CCOc1cc(-c2cc(NCCn3c(C)cc4cc(Cl)cc(Cl)c43)ncn2)ccc1C(=O)O [compound 153] | 0.202 | 0.739 |
